ChEMBL document CHEMBL2434912, “Microwave accelerated synthesis of isoxazole hydrazide inhibitors of the system xc- transporter: Initial homology model” (Bioorg Med Chem Lett, 2013)

Target: T1, Cystine/glutamate transporter (Homo sapiens) (UniProt Q9UPY5)
T1 sequence (whole entry): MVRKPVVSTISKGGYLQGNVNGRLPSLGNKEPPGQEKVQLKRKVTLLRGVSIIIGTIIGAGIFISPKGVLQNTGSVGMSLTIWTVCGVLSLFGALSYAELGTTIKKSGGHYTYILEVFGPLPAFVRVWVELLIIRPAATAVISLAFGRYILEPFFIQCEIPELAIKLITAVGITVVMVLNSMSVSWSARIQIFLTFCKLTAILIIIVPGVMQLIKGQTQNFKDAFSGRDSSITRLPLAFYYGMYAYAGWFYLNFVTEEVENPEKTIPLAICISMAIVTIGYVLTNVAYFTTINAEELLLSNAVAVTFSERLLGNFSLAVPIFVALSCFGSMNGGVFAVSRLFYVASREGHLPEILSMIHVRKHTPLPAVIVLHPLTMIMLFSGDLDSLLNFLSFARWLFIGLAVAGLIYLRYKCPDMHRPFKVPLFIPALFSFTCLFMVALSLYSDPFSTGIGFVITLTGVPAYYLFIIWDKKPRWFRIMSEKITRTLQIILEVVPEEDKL
Assay: Inhibition of system xc-transporter-mediated [3H]-L-glutamate uptake in human SNB19 cells at 500 uM after 5 mins by liquid scintillation counting analysis relative to control
Format: cell-based
Settings: SNB-19

Compound	inhibition [%]
C/C(=N\NC(=O)c1cccc2ccccc12)c1c(C(=O)O)noc1C	68
C/C(=N\NC(=O)c1ccccc1O)c1c(C(=O)O)noc1C	52
COc1ccc(C(=O)N/N=C(\C)c2c(C(=O)O)noc2C)cc1	68

Second part, the compound after the results:

inhibition [%]	Compound
83	C/C(=N\NC(=O)c1ccccc1)c1c(C(=O)O)noc1C
90	C/C(=N\NC(=O)c1cc(C(F)(F)F)cc(C(F)(F)F)c1)c1c(C(=O)O)noc1C
58	C/C(=N\NC(=O)c1ccc(F)cc1F)c1c(C(=O)O)noc1C
